Assay results: publication PMC9395446, “First-in-human phase 1/1b study to evaluate sitravatinib in patients with advanced solid tumors” (Investigational New Drugs, 2022)

Assay: Safety in phase 1/1b study (DLTs, TRAEs, TEAEs; CTCAE v4.03)
Format: in vivo, human
Details: 150 mg phase 1b
Description: Safety assessments included evaluation of DLTs, AEs, physical examinations, vital sign measurements, electrocardiogram recordings and laboratory tests.
A DLT was defined as a grade ≥ 4 hematologic abnormality lasting ≥ 4 days; grade 3 thrombocytopenia with clinically significant bleeding; febrile neutropenia; clinically significant grade ≥ 3 non-hematologic AEs not related to underlying malignancy; intolerable grade 2 AEs; or toxicity resulting in an inability to deliver 80% of the dose during the first treatment cycle.
The safety population included all patients who received ≥ 1 dose of sitravatinib. […] The PK evaluable population included all patients with sufficient concentration-time data for PK parameter evaluation. The modified intent-to-treat (mITT) population included all phase 1b patients who received ≥ 1 dose of study drug.

## COCCNCc1ccc(-c2cc3nccc(Oc4ccc(NC(=O)C5(C(=O)Nc6ccc(F)cc6)CC5)cc4F)c3s2)nc1 [sitravatinib, Sitravatinib]
  ALT increased TRAE, any grade: 18 (18.2) n (%)
  ALT increased TRAE, grade ≥3: 2 (2.0) n (%)
  AST increased TEAE, any grade: 26 (26.3) n (%)
  AST increased TEAE, grade ≥3: 3 (3.0) n (%)
  AST increased TRAE, any grade: 20 (20.2) n (%)
  AST increased TRAE, grade ≥3: 2 (2.0) n (%)
  Abdominal pain TEAE, any grade: 26 (26.3) n (%)
  Abdominal pain TEAE, grade ≥3: 2 (2.0) n (%)
  Abdominal pain TRAE, any grade: 14 (14.1) n (%)
  Abdominal pain TRAE, grade ≥3: 0 n (%)
  Anemia TEAE, any grade: 23 (23.2) n (%)
  Anemia TEAE, grade ≥3: 8 (8.1) n (%)
  Any TEAE: 99 (100.0) n (%)
  Any TRAE: 92 (92.9) n (%)
  Asthenia TEAE, any grade: 9 (9.1) n (%)
  Asthenia TEAE, grade ≥3: 0 n (%)
  Back pain TEAE, any grade: 18 (18.2) n (%)
  Back pain TEAE, grade ≥3: 3 (3.0) n (%)
  Blood and lymphatic system disorders TEAE, any grade: 27 (27.3) n (%)
  Blood and lymphatic system disorders TEAE, grade ≥3: 11 (11.1) n (%)
  Blood creatinine increased TEAE, any grade: 15 (15.2) n (%)
  Blood creatinine increased TEAE, grade ≥3: 0 n (%)
  Cardiac disorders TEAE, any grade: 15 (15.2) n (%)
  Cardiac disorders TEAE, grade ≥3: 6 (6.1) n (%)
  Constipation TEAE, any grade: 40 (40.4) n (%)
  Constipation TEAE, grade ≥3: 0 n (%)
  Constipation TRAE, any grade: 9 (9.1) n (%)
  Constipation TRAE, grade ≥3: 0 n (%)
  Cough TEAE, any grade: 15 (15.2) n (%)
  Cough TEAE, grade ≥3: 0 n (%)
  Decreased appetite TEAE, any grade: 38 (38.4) n (%)
  Decreased appetite TEAE, grade ≥3: 1 (1.0) n (%)
  Decreased appetite TRAE, any grade: 27 (27.3) n (%)
  Decreased appetite TRAE, grade ≥3: 1 (1.0) n (%)
  Dehydration TEAE, any grade: 23 (23.2) n (%)
  Dehydration TEAE, grade ≥3: 4 (4.0) n (%)
  Diarrhea TEAE, any grade: 67 (67.7) n (%)
  Diarrhea TEAE, grade ≥3: 18 (18.2) n (%)
  Diarrhea TRAE, any grade: 59 (59.6) n (%)
  Diarrhea TRAE, grade ≥3: 14 (14.1) n (%)
  Dizziness TEAE, any grade: 19 (19.2) n (%)
  Dizziness TEAE, grade ≥3: 0 n (%)
  Dizziness TRAE, any grade: 12 (12.1) n (%)
  Dizziness TRAE, grade ≥3: 0 n (%)
  Dry mouth TEAE, any grade: 15 (15.2) n (%)
  Dry mouth TEAE, grade ≥3: 0 n (%)
  Dry mouth TRAE, any grade: 10 (10.1) n (%)
  Dry mouth TRAE, grade ≥3: 0 n (%)
  Dysphonia TEAE, any grade: 26 (26.3) n (%)
  Dysphonia TEAE, grade ≥3: 0 n (%)
  Dysphonia TRAE, any grade: 13 (13.1) n (%)
  Dysphonia TRAE, grade ≥3: 0 n (%)
  Dyspnea TEAE, any grade: 19 (19.2) n (%)
  Dyspnea TEAE, grade ≥3: 2 (2.0) n (%)
  Edema peripheral TEAE, any grade: 16 (16.2) n (%)
  Edema peripheral TEAE, grade ≥3: 0 n (%)
  Endocrine disorders TEAE, any grade: 27 (27.3) n (%)
  Endocrine disorders TEAE, grade ≥3: 2 (2.0) n (%)
  Fatigue TEAE, any grade: 55 (55.6) n (%)
  Fatigue TEAE, grade ≥3: 9 (9.1) n (%)
  Fatigue TRAE, any grade: 49 (49.5) n (%)
  Fatigue TRAE, grade ≥3: 7 (7.1) n (%)
  Gastrointestinal disorders TEAE, any grade: 89 (89.9) n (%)
  Gastrointestinal disorders TEAE, grade ≥3: 33 (33.3) n (%)
  General disorders and administration site conditions TEAE, any grade: 72 (72.7) n (%)
  General disorders and administration site conditions TEAE, grade ≥3: 12 (12.1) n (%)
  Headache TEAE, any grade: 18 (18.2) n (%)
  Headache TEAE, grade ≥3: 1 (1.0) n (%)
  Hypertension TEAE, any grade: 52 (52.5) n (%)
  Hypertension TEAE, grade ≥3: 29 (29.3) n (%)
  Hypertension TRAE, any grade: 46 (46.5) n (%)
  Hypertension TRAE, grade ≥3: 24 (24.2) n (%)
  Hypokalemia TEAE, any grade: 13 (13.1) n (%)
  Hypokalemia TEAE, grade ≥3: 3 (3.0) n (%)
  Hypomagnesemia TEAE, any grade: 17 (17.2) n (%)
  Hypomagnesemia TEAE, grade ≥3: 0 n (%)
  Hyponatremia TEAE, any grade: 16 (16.2) n (%)
  Hyponatremia TEAE, grade ≥3: 5 (5.1) n (%)
  Hypophosphatemia TEAE, any grade: 15 (15.2) n (%)
